Three molecules from PubChem BioAssay AID1259407 (Chemical Carcinogenesis Research Information System (CCRIS), 2018) can be followed below.

In the data set the test system is CCRIS mutagenicity, Ames/micronucleus/aberration tests. The data set is described as follows: CCRIS mutagenicity studies.
Setting [1] is: Test System: AMES SALMONELLA TYPHIMURIUM, Strain/Indicator: TA98, Metabolic Activation: NONE, Method: STANDARD PLATE.
Where [2] appears, read: Test System: AMES SALMONELLA TYPHIMURIUM, Strain/Indicator: TA98, Metabolic Activation: RAT, LIVER, S-9, AROCLOR 1254, Method: STANDARD PLATE.

The source made the active and inactive calls. No rule for the calls is given here.

`CCCCC(CC)COC(=O)c1ccc(N(C)C)c([N+](=O)[O-])c1` (stereo not drawn): the mutagenic call reads like this: (Test System: AMES SALMONELLA TYPHIMURIUM, Strain/Indicator: TA98, Metabolic Activation: HAMSTER, LIVER, S-9, AROCLOR 1254 (10%), Method: STANDARD PLATE) “active; positive”; (Test System: AMES SALMONELLA TYPHIMURIUM, Strain/Indicator: TA98, Metabolic Activation: HAMSTER, LIVER, S-9, AROCLOR 1254, Method: STANDARD PLATE) “active; positive”; under setting [1], “active; positive”; (Test System: AMES SALMONELLA TYPHIMURIUM, Strain/Indicator: TA98, Metabolic Activation: RAT, LIVER, S-9, AROCLOR 1254 (10%), Method: STANDARD PLATE) “active; positive”; under setting [2], “active; positive”; (Test System: AMES SALMONELLA TYPHIMURIUM, Strain/Indicator: TA100, Metabolic Activation: HAMSTER, LIVER, S-9, AROCLOR 1254 (10%), Method: STANDARD PLATE) “inactive; negative”. Also, the mutagenic call is, setting by setting: (Test System: AMES SALMONELLA TYPHIMURIUM, Strain/Indicator: TA100, Metabolic Activation: HAMSTER, LIVER, S-9, AROCLOR 1254, Method: STANDARD PLATE) “inactive; negative”; (Test System: AMES SALMONELLA TYPHIMURIUM, Strain/Indicator: TA100, Metabolic Activation: NONE, Method: STANDARD PLATE) “inactive; negative”; (Test System: AMES SALMONELLA TYPHIMURIUM, Strain/Indicator: TA100, Metabolic Activation: RAT, LIVER, S-9, AROCLOR 1254 (10%), Method: STANDARD PLATE) “inactive; negative”; (Test System: AMES SALMONELLA TYPHIMURIUM, Strain/Indicator: TA100, Metabolic Activation: RAT, LIVER, S-9, AROCLOR 1254, Method: STANDARD PLATE) “inactive; negative”; (Test System: AMES SALMONELLA TYPHIMURIUM, Strain/Indicator: TA1535, Metabolic Activation: HAMSTER, LIVER, S-9, AROCLOR 1254 (10%), Method: STANDARD PLATE) “inactive; negative”; (Test System: AMES SALMONELLA TYPHIMURIUM, Strain/Indicator: TA1535, Metabolic Activation: HAMSTER, LIVER, S-9, AROCLOR 1254, Method: STANDARD PLATE) “inactive; negative”. Besides, the mutagenic call by setting is: (Test System: AMES SALMONELLA TYPHIMURIUM, Strain/Indicator: TA1535, Metabolic Activation: NONE, Method: STANDARD PLATE) “inactive; negative”; (Test System: AMES SALMONELLA TYPHIMURIUM, Strain/Indicator: TA1535, Metabolic Activation: RAT, LIVER, S-9, AROCLOR 1254 (10%), Method: STANDARD PLATE) “inactive; negative”; (Test System: AMES SALMONELLA TYPHIMURIUM, Strain/Indicator: TA1535, Metabolic Activation: RAT, LIVER, S-9, AROCLOR 1254, Method: STANDARD PLATE) “inactive; negative”; (Test System: AMES SALMONELLA TYPHIMURIUM, Strain/Indicator: TA1537, Metabolic Activation: HAMSTER, LIVER, S-9, AROCLOR 1254 (10%), Method: STANDARD PLATE) “active; positive”; (Test System: AMES SALMONELLA TYPHIMURIUM, Strain/Indicator: TA1537, Metabolic Activation: HAMSTER, LIVER, S-9, AROCLOR 1254, Method: STANDARD PLATE) “active; positive”; (Test System: AMES SALMONELLA TYPHIMURIUM, Strain/Indicator: TA1537, Metabolic Activation: NONE, Method: STANDARD PLATE) “active; positive”. The mutagenic call is “active; positive” (Test System: AMES SALMONELLA TYPHIMURIUM, Strain/Indicator: TA1537, Metabolic Activation: RAT, LIVER, S-9, AROCLOR 1254 (10%), Method: STANDARD PLATE); “active; positive” (Test System: AMES SALMONELLA TYPHIMURIUM, Strain/Indicator: TA1537, Metabolic Activation: RAT, LIVER, S-9, AROCLOR 1254, Method: STANDARD PLATE); “active; positive” (Test System: AMES SALMONELLA TYPHIMURIUM, Strain/Indicator: TA1538, Metabolic Activation: HAMSTER, LIVER, S-9, AROCLOR 1254 (10%), Method: STANDARD PLATE); “active; positive” (Test System: AMES SALMONELLA TYPHIMURIUM, Strain/Indicator: TA1538, Metabolic Activation: HAMSTER, LIVER, S-9, AROCLOR 1254, Method: STANDARD PLATE); “active; positive” (Test System: AMES SALMONELLA TYPHIMURIUM, Strain/Indicator: TA1538, Metabolic Activation: NONE, Method: STANDARD PLATE); “active; positive” (Test System: AMES SALMONELLA TYPHIMURIUM, Strain/Indicator: TA1538, Metabolic Activation: RAT, LIVER, S-9, AROCLOR 1254 (10%), Method: STANDARD PLATE). In addition, the mutagenic call (Test System: AMES SALMONELLA TYPHIMURIUM, Strain/Indicator: TA1538, Metabolic Activation: RAT, LIVER, S-9, AROCLOR 1254, Method: STANDARD PLATE) was “active; positive”.
As to `CC(=O)Nc1ccc2c3c(cccc13)-c1ccc(O)cc1-2`, the mutagenic call is “active; positive” under setting [1] and “active; positive” under setting [2].
As to `O=C1C=CC(=O)C(c2ccccc2)=C1`, the mutagenic call by setting is: (Test System: AMES SALMONELLA TYPHIMURIUM, Strain/Indicator: TA98, Metabolic Activation: NONE, Method: PREINCUBATION) “inactive; negative”; (Test System: AMES SALMONELLA TYPHIMURIUM, Strain/Indicator: TA98, Metabolic Activation: RAT, LIVER, S-9, PHENOBARBITAL AND 5,6-BENZOFLAVONE, Method: PREINCUBATION) “inactive; negative”; (Test System: AMES SALMONELLA TYPHIMURIUM, Strain/Indicator: TA100, Metabolic Activation: NONE, Method: PREINCUBATION) “inactive; negative”; (Test System: AMES SALMONELLA TYPHIMURIUM, Strain/Indicator: TA100, Metabolic Activation: RAT, LIVER, S-9, PHENOBARBITAL AND 5,6-BENZOFLAVONE, Method: PREINCUBATION) “inactive; negative”; (Test System: AMES SALMONELLA TYPHIMURIUM, Strain/Indicator: TA102, Metabolic Activation: NONE, Method: PREINCUBATION) “inactive; negative”; (Test System: AMES SALMONELLA TYPHIMURIUM, Strain/Indicator: TA102, Metabolic Activation: RAT, LIVER, S-9, PHENOBARBITAL AND 5,6-BENZOFLAVONE, Method: PREINCUBATION) “inactive; negative”. Moreover, the mutagenic call is, setting by setting: (Test System: AMES SALMONELLA TYPHIMURIUM, Strain/Indicator: TA104, Metabolic Activation: NONE, Method: PREINCUBATION) “inactive; negative”; (Test System: AMES SALMONELLA TYPHIMURIUM, Strain/Indicator: TA104, Metabolic Activation: RAT, LIVER, S-9, PHENOBARBITAL AND 5,6-BENZOFLAVONE, Method: PREINCUBATION) “inactive; negative”; (Test System: AMES SALMONELLA TYPHIMURIUM, Strain/Indicator: TA2637, Metabolic Activation: NONE, Method: PREINCUBATION) “inactive; negative”; (Test System: AMES SALMONELLA TYPHIMURIUM, Strain/Indicator: TA2637, Metabolic Activation: RAT, LIVER, S-9, PHENOBARBITAL AND 5,6-BENZOFLAVONE, Method: PREINCUBATION) “inactive; negative”; (Test System: CHINESE HAMSTER V-79, Strain/Indicator: V-79 (HGPRT)/6-THIOGUANINE, Metabolic Activation: NONE) “inactive; negative”.
